Where two headings read alike, the source gives them in different places.
What was measured:
[1] = test system: C2C12 cells; conditions: for protein content / protein content, percentage difference from vehicle: 3 days in fusion medium
Experimental: (§1) Procedure A—Three days in fusion medium. C2hAR57 cells were plated in 12-well tissue culture plates (Costar, Corning, N.Y.) at 4×10^4 cells/well in high mitogen growth medium.

[2] = test system: C2hAR57 cells; conditions: for protein content / protein content, percentage difference from vehicle: 3 days in fusion medium
Experimental: as §1

[3] = test system: C2C12 cells; conditions: C2C12, 100 nM DHT
Experimental: (§2) Each cell sample was pelleted by low-speed centrifugation and resuspended in 0.5 ml phosphate buffered saline containing 100 micrograms/ml ribonuclease A and 20 microgram/ml propidium iodide for 30 minutes at room temperature.

[4] = test system: C2hAR57 cells; conditions: C2hAR57, 100 nM DHT
Experimental: as §2

[5] = test system: C2hAR57 cells; assay: [3H]-thymidine uptake assay, C2hAR57 cells; format: cell-based, mouse; conditions: 48 hours exposure
Experimental: After 48 hours exposure to the test agents, medium containing 0.1 μCi [^3H]-thymidine (82 Ci/mmol, Amersham, Buckinghamshire, UK) per well was added and incubation was continued for two additional hours at 37° C. The assay was terminated by aspirating the culture medium and washing with ice-cold phosphate buffered saline followed by 5% trichloroacetic acid. The cells where then lysed by applying 0.3 N NaOH (75 μl per well) followed by 0.3 N HCl (75 μl per well) to neutralize the NaOH. The radioactivity in 50-μl aliquots was determined by liquid scintillation counting in 96-well plates (Packard Instrument Corporation) using a TopCount™ Scintillation Counter (Packard Instrument Corporation).

[6] = test system: C2C12 cells; conditions: C2C12, 100 nM DHT, 24 hours in fusion medium
Experimental: (§3) All cultures were approximately 80% confluent at the time of mitogen withdrawal. After 24 hour in fusion medium, the medium containing nonadherent cells was transferred to centrifuge tubes. The dishes were then rinsed with phosphate buffered saline and adherent cells were collected by trypsinization. Cell pellets were recovered by centrifugation and lysed in 50 mM Tris HCl, pH 8, 100 mM Na2EDTA, 0.5% sodium dodecylsulfate. […] DNA yields from pools of five dishes were determined by UV spectroscopy at 260 nm. Aliquots corresponding to 10 μg DNA were analyzed by electrophoresis on a 1% agarose gel in TBE buffer and visualized by ethidium bromide fluorescence with UV transillumination.

[7] = test system: C2hAR57 cells; conditions: C2hAR57, 100 nM DHT; remark: listed apart in the source
Experimental: as §3

[8] = test system: C2C12 cells; conditions: C2C12, addition of DHT, fusion medium
Description: Fusion medium was changed daily. C2hAR57 cells at low density in high mitogen growth medium appeared as small, adherent mononuclear cells.

[9] = test system: C2hAR57 cells; conditions: for Change in protein content: during 24 hours in fusion medium
Experimental: Procedure B—24 Hours in fusion medium. […] Cell extracts were prepared from the second set of cultures after 24 hours in fusion medium (day one). The change in protein content was determined by subtracting the average protein content for each treatment on day zero from the average protein content on day one.

[10] = test system: IGF-II transcripts in C2C12 cells; conditions: C2C12, 100 nM DHT
Experimental: Day zero samples were harvested just prior to the induction of differentiation. […] Total RNA was isolated using Trizol®, and RNA concentration was determined by UV spectroscopy. Samples containing 20 micrograms of total RNA were separated by electrophoresis on formaldehyde-containing agarose gels, transferred to Duralon-UV™ nylon membrane (Stratagene, La Jolla, Calif.) by capillary blotting in 5×SSPE and probed sequentially for IGFBP4, IGF-II and 18S ribosomal RNA. DNA fragments used for probes were generated by reverse transcription polymerase chain reaction using rat skeletal muscle poly A+ RNA as template. […] Probes were denatured by boiling and used at a concentration of 1-2×10^6 dpm/ml hybridization solution (50% formamide, 6×SSC, 1% SDS, 15×Denhardt's solution, 0.1 mg/ml sheared salmon sperm DNA). Following hybridization at 42° C. for at least 24 hours, the membranes were washed to moderate stringency with 0.3×SSC/0.1% SDS at 55° C. […] Between successive probings, the membrane was stripped by incubation at 70° C. for one to three hours in a solution consisting of 5 mM Tris HCl, pH 8, 0.2 mM Na2EDTA, 0.05% sodium pyrophosphate and 0.1×Denhardt's solution. The imaging plate was exposed for 42 hours and 90 minutes to the IGFBP4 and IGF-II hybridizations, respectively. The 18S signal was used to normalize the hybridization signals from each of the other probes.

C[C@]12CCC(=O)C[C@@H]1CC[C@@H]1[C@@H]2CC[C@]2(C)[C@@H](O)CC[C@@H]12 [DHT, dihydrotestosterone]
protein content ([1]; C2C12, 0.001 nM DHT): 245 ± 5 micrograms/well | protein content, percentage difference from vehicle ([1]; C2C12, 0.001 nM DHT): +3% | protein content ([1]; C2C12, 0.01 nM DHT): 228 ± 3 micrograms/well | protein content, percentage difference from vehicle ([1]; C2C12, 0.01 nM DHT): −4% | protein content ([1]; C2C12, 0.1 nM DHT): 246 ± 4 micrograms/well | protein content, percentage difference from vehicle ([1]; C2C12, 0.1 nM DHT): +3% | protein content ([1]; C2C12, 1 nM DHT): 256 ± 9 micrograms/well | protein content, percentage difference from vehicle ([1]; C2C12, 1 nM DHT): +7% | protein content ([1]; C2C12, 10 nM DHT): 243 ± 6 micrograms/well | protein content, percentage difference from vehicle ([1]; C2C12, 10 nM DHT): +2% | protein content ([1]; C2C12, 100 nM DHT): 243 ± 6 micrograms/well | protein content, percentage difference from vehicle ([1]; C2C12, 100 nM DHT): +2% | protein content ([1]; C2C12, 1000 nM DHT): 278 ± 2 micrograms/well | protein content, percentage difference from vehicle ([1]; C2C12, 1000 nM DHT): +17% | change in total protein content ([1]; C2C12 cultures, DHT 10^-12-10^-6 M, Procedure A): no consistent change | protein content ([2]; C2hAR57, 0.001 nM DHT): 123 ± 6 micrograms/well | protein content, percentage difference from vehicle ([2]; C2hAR57, 0.001 nM DHT): −1% | protein content ([2]; C2hAR57, 0.01 nM DHT): 127 ± 11 micrograms/well | protein content, percentage difference from vehicle ([2]; C2hAR57, 0.01 nM DHT): +3% | protein content ([2]; C2hAR57, 0.1 nM DHT): 152 ± 2 micrograms/well | protein content, percentage difference from vehicle ([2]; C2hAR57, 0.1 nM DHT): +23% | protein content ([2]; C2hAR57, 1 nM DHT): 188 ± 4 micrograms/well | protein content, percentage difference from vehicle ([2]; C2hAR57, 1 nM DHT): +52% | protein content ([2]; C2hAR57, 10 nM DHT): 199 ± 10 micrograms/well | protein content, percentage difference from vehicle ([2]; C2hAR57, 10 nM DHT): +61% | protein content ([2]; C2hAR57, 100 nM DHT): 200 ± 4 micrograms/well | protein content, percentage difference from vehicle ([2]; C2hAR57, 100 nM DHT): +62% | protein content ([2]; C2hAR57, 1000 nM DHT): 212 ± 3 micrograms/well | protein content, percentage difference from vehicle ([2]; C2hAR57, 1000 nM DHT): +71% | dose-related increase in total protein content ([2]; differentiating C2hAR57 cultures, DHT 10^-12-10^-6 M, Procedure A): up to 71% | effect on fraction of cells at each stage of the cell cycle [3]: unaffected | Percentage of cells in G2-M ([3]; 24 h): 15.6 ± 1.2% | Percentage of cells in GO-G1 ([3]; 24 h): 40.3 ± 0.8% | Percentage of cells in S ([3]; 24 h): 45.3 ± 1.1% | Percentage of cells in G2-M ([3]; 48 h): 15.8 ± 0.7% | Percentage of cells in GO-G1 ([3]; 48 h): 38.0 ± 0.6% | Percentage of cells in S ([3]; 48 h): 46.2 ± 0.7% | Percentage of cells in G2-M ([4]; 24 h): 14.3 ± 0.4 % | Percentage of cells in GO-G1 ([4]; 24 h): 54.5 ± 0.7 % | Percentage of cells in S ([4]; 24 h): 31.2 ± 0.6 % | Percentage of cells in G2-M ([4]; 48 h): 15.1 ± 1.1 % | Percentage of cells in GO-G1 ([4]; 48 h): 51.2 ± 2.8 % | Percentage of cells in S ([4]; 48 h): 33.7 ± 3.2 % | effect on [3H]-thymidine uptake [5]: dose-dependent inhibitory effects | DNA, adherent cells [6]: 504 μg/dish | DNA, nonadherent cells (% total) [6]: 2.9% | effect on the fraction of nonadherent cells [6]: did not appreciably alter | reduction of the incidence of apoptotic cells ([7]; 24 hour period following mitogen withdrawal): approximately 75% | DNA, adherent cells ([7]; 24 hours in fusion medium): 528 μg/dish | DNA, nonadherent cells ([7]; 24 hours in fusion medium): 2.6 μg/dish | DNA, nonadherent cells (% total) ([7]; 24 hours in fusion medium): 0.5% | rate and extent of myotube formation [8]: neither the rate nor the extent of myotube formation in cultures of C2C12 was visibly affected | Change in protein content ([9]; C2hAR57, 0.001 nM DHT): −93 micrograms/well | Change in protein content ([9]; C2hAR57, 0.1 nM DHT): −56 micrograms/well | Change in protein content ([9]; C2hAR57, 10 nM DHT): +48 micrograms/well | Change in protein content ([9]; C2hAR57, 1000 nM DHT): +61 micrograms/well | effect on net loss of protein seen with vehicle ([9]; C2hAR57, increasing concentrations of DHT, Procedure B): ameliorated and even reversed | increase of IGF-II transcripts ([10]; 0 days in fusion medium): 0.8 × | increase of IGF-II transcripts ([10]; 1 day in fusion medium): 1.5 × | increase of IGF-II transcripts ([10]; 2 days in fusion medium): 1.0 ×

Source: US20030215888A1, “Androgen receptor overexpressing skeletal myoblasts” (Pfizer Inc., priority 2002, published 2003)
